Test results published in ChEMBL document CHEMBL1146459, “Production of biologically active taxoids by a callus culture of Taxus cuspidata” (2004).

How the values were obtained:
U-251 = assay: Growth inhibition of human U251 cells after 48 hrs by SRB assay; assay type: functional; settings: U-251, 48 h
LOX IMVI = assay: Growth inhibition of human LOXIMVI cells after 48 hrs by SRB assay; assay type: functional
[1] = read-out: LC50 (the source's name)
[2] = read-out: pLC50 (the source's name) (converted)

Row | SMILES | GI50 (U-251; read-out: GI50) [µM] | CC50 (U-251; [1]) [µM] | TGI (U-251; read-out: TGI) [µM] | GI50 (U-251; read-out: pGI50 (converted)) [µM] | CC50 (U-251; [2]) [µM] | TGI (U-251; read-out: pTGI (converted)) [µM] | GI50 (LOX IMVI; read-out: GI50) [µM] | CC50 (LOX IMVI; [1]) [µM] | TGI (LOX IMVI; read-out: TGI) [µM] | GI50 (LOX IMVI; read-out: pGI50 (converted)) [µM] | CC50 (LOX IMVI; [2]) [µM] | TGI (LOX IMVI; read-out: pTGI (converted)) [µM]
1 | C=C1[C@@H](OC(C)=O)CC[C@@]2(C)C[C@H](OC(C)=O)C3=C(C)C[C@H](OC(=O)C(C)CC)[C@@H]([C@@H](OC(C)=O)[C@H]12)C3(C)C (some centres undefined) | 36 | > 100 | > 100 | 36.3 | 100 | 100 | 35 | > 100 | > 100 | 34.7 | 100 | 100
2 | C=C1[C@@H](OC(C)=O)CC[C@]2(C)[C@@H]1C[C@@H]1C[C@H](OC(C)=O)C(C)=C([C@@H](O)[C@@H]2OC(=O)/C=C/c2ccccc2)C1(C)C | 71 | 100 | 100 | 70.8 | 100 | 100 | 38 | 100 | 100 | 38 | 100 | 100
